pEC50: −log10 of the molar value.
What was measured:
[1] = molecular target: T1, Alpha-1A adrenergic receptor (Homo sapiens, UniProt P35348); experiment: Alpha-1 adrenergic receptor agonist activity in rabbit ear artery; assay type: functional, tissue-based, Oryctolagus cuniculus; settings: target entry is the homologue from another species
T1 sequence (P35348 whole entry): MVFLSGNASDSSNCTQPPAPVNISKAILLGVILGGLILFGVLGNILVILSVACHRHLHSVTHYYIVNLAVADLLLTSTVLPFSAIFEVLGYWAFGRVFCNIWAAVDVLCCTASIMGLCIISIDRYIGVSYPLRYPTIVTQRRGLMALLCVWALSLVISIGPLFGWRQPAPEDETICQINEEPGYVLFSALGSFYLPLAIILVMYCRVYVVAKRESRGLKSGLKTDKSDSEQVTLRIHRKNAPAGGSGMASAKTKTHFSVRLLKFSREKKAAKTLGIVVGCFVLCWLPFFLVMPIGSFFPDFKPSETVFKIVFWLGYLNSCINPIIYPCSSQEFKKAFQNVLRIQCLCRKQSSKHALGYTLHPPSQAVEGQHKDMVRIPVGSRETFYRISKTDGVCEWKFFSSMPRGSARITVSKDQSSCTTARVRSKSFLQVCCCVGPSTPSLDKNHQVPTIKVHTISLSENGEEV

Oryctolagus cuniculus = organism: Oryctolagus cuniculus; experiment: Phentolamine dissociation constant was evaluated in rabbit ear artery; assay type: functional

## NC1CCc2ccccc2C1 (centres undefined)
[1]
  pEC50: < 4.52

## COc1ccc(OC)c(C(O)C(C)N)c1 (centres undefined) [METHOXAMINE]
Oryctolagus cuniculus
  Kb: 9.8 nM
[1]
  pEC50: 6.14

## COc1ccc(OC)c2c1CC[C@H]1NCCCC21 (some centres undefined)
Oryctolagus cuniculus
  Kb: 11 nM
[1]
  pEC50: 6.77

## COc1ccc(OC)c2c1CCCC(N)C2 (centres undefined)
Oryctolagus cuniculus
  Kb: 11 nM
[1]
  pEC50: 5.28

## COc1ccc(OC)c(CCN)c1
Oryctolagus cuniculus
  Kb: 54 nM
[1]
  pEC50: 4.96

## COc1ccc(OC)c2c1CCC(N)C2 (centres undefined)
Oryctolagus cuniculus
  Kb: 6 nM
[1]
  pEC50: 6.92

## COc1ccc(OC)c2c1C1CCC2[C@@H](N)C1 (some centres undefined)
[1]
  pEC50: 4.52

## COc1ccc(OC)c2c1CC1C2[C@@H]1N (some centres undefined)
Oryctolagus cuniculus
  Kb: 8.4 nM
[1]
  pEC50: 6.47

## COc1ccc(OC)c2c1C1CCC2[C@H](N)C1 (some centres undefined)
[1]
  pEC50: 4.52

## COc1ccc(OC)c2c1CCNC2
[1]
  pEC50: < 4.52

## COc1ccc(OC)c2c1CC[C@@H]1NCCCC21 (some centres undefined)
Oryctolagus cuniculus
  Kb: 14.7 nM
[1]
  pEC50: 6.70

## COc1ccc(OC)c2c1CC(N)C2
[1]
  pEC50: 4.52

— ChEMBL document CHEMBL1121757, “Alpha-adrenergic agents. 1. Direct-acting alpha 1 agonists related to methoxamine” (J Med Chem, 1981)
